Source: patent US20180369327A1, “METHOD FOR TREATING OR PREVENTING OSTEOARTHRITIS” (Dong-A University Research Foundation for Industry-Academy …, priority 2017, published 2018)
Entries after “also recorded” stand apart in the source; their conditions may differ.

Columns and labels:
[1] = tested on: rat articular chondrocytes; test: Cell viability assay (automated trypan blue exclusion); format: cell-based; conditions: n=4
Protocol: Rat articular chondrocytes for primary culture were isolated from knee joint cartilage slices by enzymatic digestion for 1 h with 0.2% type II collagenase (381 units/mg) in DMEM. After the isolated cells were collected by brief centrifugation, they were resuspended in DMEM supplemented with 10% (v/v) FBS, […] streptomycin and 50 units/ml penicillin (Gibco). The cells were plated on culture dishes at a density of 5×10^4 cells/cm^2. The medium was replaced every 2 days, and they reached confluence after approximately 5 days in culture. In each experiment, the cells from three animals were pooled and analyzed three times.
FFA were dissolved in absolute ethanol at a concentration of 500 mM and diluted to final concentrations of FFAs with the appropriate concentration of 1% (w/v) FFA-free BSA. Controls were incubated with equal concentrations of FFA-free BSA containing ethanol. To examine the effect of several chemicals, cells were pretreated with 150 μg/mL DRB or 30 μM cilostazol for 24 h or 25 ng/ml TNF-α for 3 h before FFA treatment.
siRNA transfection or combination treatment with FFAs. Transfection of siRNA was performed with the use of siPORT Amine and Opti-MEM media. Cells grown to a confluence of 40% to 50% in six-well plates were transfected with 100 nM final siRNA concentration per well. Transfection mixture was added to each well, and incubation occurred for 4 h. Then 2 ml of growth medium was added, and cells were incubated for another 20 h. After siRNA transfection medium was removed, each well was washed in PBS solution. Cells were treated with FFAs for 24 hours.
Recombinant adenoviral STAMP2 was prepared as described previously34. Cells (1×10^7) were infected with recombinant adenoviral STAMP2 at multiplicities of infection (MOI) of 500, 1000 and 1500 to the medium.
An automated trypan blue exclusion assay was undertaken. Total cells and trypan bluestained (i.e., nonviable) cells were counted, and the percentage of nonviable cells was calculated using the Vi-Cell cell counter (Beckman Coulter, Miami, Fla., USA).

STAMP2 [2] = test: Western blot of STAMP2 protein in articular chondrocytes; format: cell-based, rat; conditions: 30 μM cilostazol, 1.5 mM oleate; n=4
Protocol: (§1) Rat articular chondrocytes for primary culture were isolated from knee joint cartilage slices by enzymatic digestion for 1 h with 0.2% type II collagenase (381 units/mg) in DMEM. After the isolated cells were collected by brief centrifugation, they were resuspended in DMEM supplemented with 10% (v/v) FBS, […] streptomycin and 50 units/ml penicillin (Gibco). The cells were plated on culture dishes at a density of 5×10^4 cells/cm^2. The medium was replaced every 2 days, and they reached confluence after approximately 5 days in culture. In each experiment, the cells from three animals were pooled and analyzed three times. FFA were dissolved in absolute ethanol at a concentration of 500 mM and diluted to final concentrations of FFAs with the appropriate concentration of 1% (w/v) FFA-free BSA. Controls were incubated with equal concentrations of FFA-free BSA containing ethanol. […] Cell (2×10^6) were washed twice with ice-cold PBS. Cells were resuspended in lysis buffer [200 ll of icecold solubilizing buffer (300 mM NaCl, 50 mM Tris-Cl (pH 7.6), 0.5% Triton X-100, protease inhibitor cocktail)] and incubated at 4° C. for 30 min. The lysates were centrifuged at 14,000 rpm for 20 min at 4° C. The protein concentrations of the cell lysates were measured with the Bradford protein assay reagent (Bio-Rad). Then, 50 μg of proteins was loaded onto 15 SDS-PAGE. The separated proteins were transferred to nitrocellulose membranes (Amersham Pharmacia Biotech, Piscataway, N.J., USA) and probed with each antibody. Immunostaining with the antibodies was carried out using the Super Signal West Pico enhanced chemiluminescence substrate and detected with LAS-3000PLUS.

caspase-3 and -7 = test: Western blot of apoptosis-related factors (caspase-3 and -7 activation); format: cell-based, rat; conditions: 30 μM cilostazol, 1.5 mM oleate; n=4
Protocol: as §1, with “The lysates were centrifuged at 14,000 rpm for 20 min at 4° C.” left out, “Then, 50 μg of proteins was loaded onto 15 SDS-PAGE. The separated proteins were transferred to nitrocellulose membranes (Amersham Pharmacia Biotech, Piscataway, N.J., USA) and probed with each antibody.” left out

[3] = tested on: lipid droplets (LD) in rat articular chondrocytes; test: Lipid droplet staining (Nile red, BODIPY), confocal microscopy and quantification; format: cell-based
Protocol: Rat articular chondrocytes for primary culture were isolated from knee joint cartilage slices by enzymatic digestion for 1 h with 0.2% type II collagenase (381 units/mg) in DMEM. After the isolated cells were collected by brief centrifugation, they were resuspended in DMEM supplemented with 10% (v/v) FBS, […] streptomycin and 50 units/ml penicillin (Gibco). The cells were plated on culture dishes at a density of 5×10^4 cells/cm^2. The medium was replaced every 2 days, and they reached confluence after approximately 5 days in culture. In each experiment, the cells from three animals were pooled and analyzed three times. FFA were dissolved in absolute ethanol at a concentration of 500 mM and diluted to final concentrations of FFAs with the appropriate concentration of 1% (w/v) FFA-free BSA. Controls were incubated with equal concentrations of FFA-free BSA containing ethanol. […] Cells cultured on a coverslip were incubated with diluted Nile red or BODIPY 493/503. Some sections were double-labelled with TUNEL and BODIPY 493/503 and counterstained with Hoechst 33342. Fluorescence images were observed and analyzed using a Zeiss LSM 510 laser-scanning confocal microscope (Goettingen, Germany). Twenty cells from each experiment were observed and auantification of fluorescence intensity of the confocal images were obtained with the use of ImageJ software. Fluorescence intensity was expressed as AU.

PKCK2 = test: Immunohistochemistry of cartilage, PKCK2-positive cells, HFD-induced OA mouse model; format: in vivo; conditions: mice fed HFD, cilostazol 30 mg/kg/day orally 10 weeks; n=10
Protocol: (§2) HFD-induced OA mouse model. Sixty mice were fed a normal chow diet for one week and then mice were fed an HFD or a SD for 25 weeks. Ten mice from each diet were used histologically examine the effect of high fat diet. Forty mice were used to examine the effect of cilostazol. Mice fed a SD or HFD for 15 weeks were orally administered cilostazol at concentrations of 30 mg/kg/day for additional 10 weeks. SD+vehicle mice (n=10) were fed a SD and received DMSO. SD+cilostazol mice (n=10) were fed a SD and received cilostazol. HFD+vehicle mice (n=10) were fed a HFD and received DMSO. HFD+cilostazol mice (n=10) were fed a HFD and received cilostazol. Immunohistochemical observation and analysis. Tissue sections were incubated in 1:70-diluted goat serum solution for 30 minutes at room temperature, and then for 2 hours with 1:100-diluted primary antibody at room temperature. Next, sections were incubated with secondary antibody for 1 hour at 37° C. and developed using ABC complex. […] Histological images were observed and analyzed using a Aperio ScanScope® CS system. Total numbers of positive for […]27 and STAMP2 in four fields per animal were counted by an observer blinded to the experiment and the percentage of positive cells were calculated.

STAMP2 [4] = test: Immunohistochemistry of cartilage, STAMP2-positive cells, HFD-induced OA mouse model; format: in vivo; conditions: mice fed HFD, cilostazol 30 mg/kg/day orally 10 weeks; n=10
Protocol: as §2

FSP27 = test: Immunohistochemistry of cartilage, FSP27-positive cells, HFD-induced OA mouse model; format: in vivo; set-up: reference not given here; conditions: mice fed HFD, cilostazol 30 mg/kg/day orally 10 weeks; n=10
Protocol: as §2

O=C1CCc2cc(OCCCCc3nnnn3C3CCCCC3)ccc2N1 [cilostazol]
influence on lipotoxicity of oleate/palmitate combination (viability) ([1]; 0.4 mM oleate with 0.6 or 1.6 mM palmitate): reciprocal influences on lipotoxicity
effect on oleate-induced cell death (viability) ([1]; cilostazol pre-treatment, 1.5 mM oleate): prevented 1.5 mM oleate-induced cell death
effect on oleate-induced downregulation of STAMP2 (STAMP2 [2]): completely reversed the downregulation of STAMP2 induced by oleate; also recorded: reversed the 1.5 mM oleate (O)-induced downregulation of STAMP2
effect on oleate-induced activation of caspase-3 and -7 (caspase-3 and -7): prevented
LD size and LD accumulation ([3]; 30 μM cilostazol, 1.5 mM oleate): increases LD size and LD accumulation
LD accumulation ([3]; cilostazol in cells treated with 0.4 mM oleate and 1.6 mM palmitate): augmented the LD accumulation
total LD volume ([3]; cilostazol versus 1.5 mM oleate alone, n=4): significantly increased
oleate-induced LD fragmentation ([3]; cilostazol, 1.5 mM oleate, n=4): prevented oleate-induced LD fragmentation
population of PKCK2-positive cells (PKCK2): significantly increased
population of STAMP2-positive cells (STAMP2 [4]): significantly increased
population of FSP27-positive cells (FSP27): significantly increased
